{"source": "patent US20260335205A1", "about": "“ACTIVE AGENT MODULATING THE ACTIVITY OF AN ION CHANNEL FOR USE IN REGULATION OF SKIN PIGMENTATION” (priority 2022, published 2026)", "key": {"[1]": {"test_system": "epidermal melanin content in human skin organ culture", "test": "Epidermal melanin content (Warthin-Starry / Fontana Masson histochemistry, quantitative histomorphometry) in ex vivo human skin organ culture", "assay_type": "cell-based", "protocol": "(§1) Samples of human abdominal, temporal, and occipital skin were obtained with written patient consent and under ethical approval from healthy adult human subjects during elective plastic surgery performed for cosmetic reasons. Full-thickness human skin samples were prepared as 4-6 mm punches, placed on filter paper, and cultured at the air-liquid interphase under serum-free conditions in William's E medium supplemented only with insulin, hydrocortisone and L-glutamine, as described previously.\nFor topical application of menthol (Sigma), a TRPM8 activator, a stock (5 M) was prepared in ethanol and dissolved at 37 °C at a final concentration of 1 mM in a 30% v/v solution of Polyethylene glycol 6000 (Sigma) in ethanol. For topical application of N-(3-Aminopropyl)-2-[(3-methylphenyl)methoxy]-N-(2-thienylmethyl)benzamide hydrochloride (AMTB) (Sigma), an TRPM8 inhibitor, a stock (50 mM) was prepared in water and dissolved at 37 °C at a final concentration of 10 μM in a 30% v/v solution of Polyethylene glycol 6000 (Sigma) in ethanol. Two μL droplets of this viscous solution containing menthol (1 mM), AMTB (10 μM), their combination, or ethanol as vehicle control were applied daily (up to 3 days) to the epidermis of skin biopsies.\nHistochemical visualization of melanin in skin sections was performed using the Warthin-Starry Stain Kit (Abcam) or Fontana Masson histochemistry. For Warthin-Starry histochemistry, formalin-fixed human skin/HF frozen sections were rinsed in distilled water and incubated with AgNO3(0.5 % in acidulated water) for 30 seconds at 50 °C. Next, the sample was incubated with developer solution (0.42% AgNO3, 5% Gelatin, and 0.15% hydroquinone in acidulated water) and incubated for 2-5 minutes at 50 °C. The reaction was stopped by consecutive rinses in hot (60 °C) tap water for 2 minutes. Incubation with Na2S2O3 (5 % in distilled water) for 1 minute, followed by 3 minutes of consecutive washes in tap water can also be used to remove unbound AgNO3 and to tone the brown coloring of melanin black. Brief counterstain with hematoxylin was used to visualize nuclei. […]\nImages were then obtained with a digital microscope (Keyence). Quantitative histomorphometric analysis was performed by assessing the relative intensity and the area of melanin stain in standardized reference areas with ImageJ (NIH; Bethesda, MD, USA). Briefly, for each parameter evaluated, multiple non-consecutive skin sections (at least 280 μm apart from each other) per punch biopsy were stained. Two skin punch biopsies were analyzed per experimental group unless indicated otherwise. The melanin content was then calculated based on the product of the fraction of area occupied by melanin and the mean shade of gray of the melanin, as described in detail elsewhere. […]"}, "gp100": {"test_system": "gp100", "test": "gp100-specific immunoreactivity (immunohistochemistry, quantitative histomorphometry) in ex vivo human skin organ culture", "assay_type": "cell-based", "conditions": "after 3 days", "protocol": "as §1\nFor topical application of menthol (Sigma), a TRPM8 activator, a stock (5 M) was prepared in ethanol and dissolved at 37 °C at a final concentration of 1 mM in a 30% v/v solution of Polyethylene glycol 6000 (Sigma) in ethanol. […]\nAfter consecutive rinses in PBS, samples were incubated with rhodamine-conjugated secondary antibody (Jackson ImmunoResearch) diluted 1:200 in normal goat serum (2% in PBS) for 45 minutes at RT. […] Image acquisition and quantitative histomorphometric analysis were performed similar to as described for the Warthin-Starry technique, with a special emphasis on assessing the relative intensity and the area of gp100-specific immunoreactivity (IR) in the basal epidermal layer (i.e., the epidermal compartment where melanocytes reside)."}, "tyrosinase": {"test_system": "tyrosinase", "test": "In situ tyrosinase activity (quantitative histomorphometry) in ex vivo human skin organ culture", "assay_type": "cell-based", "conditions": "after 3 days", "protocol": "Samples of human abdominal, temporal, and occipital skin were obtained with written patient consent and under ethical approval from healthy adult human subjects during elective plastic surgery performed for cosmetic reasons. Full-thickness human skin samples were prepared as 4-6 mm punches, placed on filter paper, and cultured at the air-liquid interphase under serum-free conditions in William's E medium supplemented only with insulin, hydrocortisone and L-glutamine, as described previously. […]\nFor the in situ detection of tyrosinase activity (the enzyme that catalyzes the rate-limiting step of melanin synthesis), human skin cryosections were fixed in an acetone/methanol solution (1:1 ratio) and blocked with H2O2 (0.3 % in PBS) for 15 minutes. […] Tyrosinase activity was detected with the TSA™ Biotin System (Akoya Biosciences). […]\nImage acquisition and quantitative histomorphometric analysis were performed similar to as described for the Warthin-Starry technique, with a special emphasis on assessing the relative intensity and the area of tyrosinase activity-specific immunoreactivity (IR) in the basal epidermal layer (i.e., the epidermal compartment where melanocytes reside)."}, "melanocyte tyrosinase": {"test_system": "melanocyte tyrosinase", "conditions": "background, phenolic compounds (e.g., hydroquinone and derivatives); cited from earlier work"}, "[2]": {"conditions": "background; cited from earlier work"}, "[3]": {"conditions": "topical menthol 1 mM, after 3 days, vs vehicle, Warthin-Starry (FIG. 1)"}}}
{"smiles": "Cc1cccc(COc2ccccc2C(=O)N(CCCN)Cc2cccs2)c1.Cl", "note": "[AMTB, N-(3-Aminopropyl)-2-[(3-methylphenyl)methoxy]-N-(2-thienylmethyl)benzamide hydrochloride]", "values": [{"measurement": "prevention of menthol-induced increase of epidermal melanin content", "setting": "[1]; topical AMTB 10 μM with menthol 1 mM, after 3 days, vs vehicle, Warthin-Starry (FIG. 4)", "result": "prevented the effect of the TRPM8 agonist menthol (1 mM) to increase epidermal melanin content"}, {"measurement": "prevention of menthol-induced increase of gp100-specific IR in the basal epidermal layers", "setting": "gp100; topical AMTB 10 μM with menthol 1 mM, vs vehicle (FIG. 5)", "result": "prevented the effect of the TRPM8 agonist menthol (1 mM) to increase gp100-specific IR in the basal epidermal layers"}, {"measurement": "prevention of menthol-induced increase of tyrosinase activity in the basal epidermal layers", "setting": "tyrosinase; topical AMTB 10 μM with menthol 1 mM, vs vehicle (FIG. 6)", "result": "prevented the effect of the TRPM8 agonist menthol (1 mM) to increase tyrosinase activity in the basal epidermal layers"}]}
{"smiles": "Oc1ccc(O)cc1", "note": "[hydroquinone]", "values": [{"measurement": "inhibition of melanocyte tyrosinase", "setting": "melanocyte tyrosinase", "result": "shown to inhibit melanocyte tyrosinase"}, {"measurement": "DNA damage", "setting": "[2]", "result": "shown to cause DNA damage"}, {"measurement": "chronic adverse effects", "setting": "[2]", "result": "contact dermatitis, sclera and nail hyperpigmentation, impaired wound healing"}]}
{"smiles": "CC1CCC(C(C)C)C(O)C1", "note": "(centres unmarked) [menthol]", "values": [{"measurement": "epidermal melanin content", "setting": "[1]; [3]", "result": "markedly increases epidermal melanin content"}, {"measurement": "melanin content in basal and suprabasal layers", "setting": "[1]; [3]", "result": "increased the melanin content not only in the basal layer (i.e., the epidermal compartment where melanocytes reside) but also in the suprabasal layers"}, {"measurement": "epidermal melanin content verified by two independent histochemical technologies", "setting": "[1]; topical, human ex vivo skin organ cultures", "result": "upregulated epidermal melanin content"}, {"measurement": "intensity level of gp100-specific IR in the basal epidermal layers", "setting": "gp100; topical menthol 1 mM, vs vehicle (FIG. 2)", "result": "markedly increases the intensity level of gp100-specific IR in the basal epidermal layers"}, {"measurement": "intensity level of tyrosinase activity in the basal epidermal layers", "setting": "tyrosinase; topical menthol 1 mM, vs vehicle (FIG. 3)", "result": "markedly increases the intensity level of tyrosinase activity in the basal epidermal layers"}]}
